# Data: US8017612B2, “Piperazine compound and use thereof as a HCV polymerase inhibitor” (priority 2006, dated 2011)
# Key:
# [1] = molecular target: T1, HCV polymerase (NS5B) type 1b (Hepatitis C virus genotype 1b, UniProt P26663); assay: Assay of enzyme (HCV polymerase) inhibitory activity, type 1b enzyme; assay type: biochemical, HCV BK strain (type 1b); conditions: HCV polymerase inhibitory activity (IC50), 1b, type 1b enzyme 0.5 μg/ml, 25° C., 60 min
# T1 construct: a region encoding NS5B (J Virol 1991 March, 65(3), 1105-13, 544 amino acids after deletion of 47 amino acids on the C-terminal); 6xHis (C); made in house; host or cells: Escherichia coli
# Procedure, shortened: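 His-tagged, C-terminally truncated NS5B (BK strain, 1b; 0.5 μg/ml) incubated with compound 60 min at 25 °C on 3′UTR-derived substrate RNA (5 μg/ml), 50 μM ATP/GTP/CTP, 2 μM UTP plus [3H]UTP, pH 7.5. Acid-precipitated RNA counted; IC50 from radioactivity with and without compound.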
# [2] = molecular target: T2, HCV polymerase (NS5B) type 1a (Hepatitis C virus genotype 1a, UniProt P26664); assay: Assay of enzyme (HCV polymerase) inhibitory activity, type 1a enzyme; assay type: biochemical, HCV type 1a (cloned from the blood of patients); conditions: HCV polymerase inhibitory activity (IC50), 1a, type 1a enzyme 1.5 μg/ml, 25° C., 60 min
# T2 construct: made in house; host or cells: Escherichia coli (by the 'similar method' of the 1b enzyme)
# Procedure, shortened: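 His-tagged NS5B, C-terminal 47 residues deleted, type 1a at 1.5 μg/ml, with 5 μg/ml HCV 3′UTR substrate RNA, 50 μM ATP/GTP/CTP, 2 μM UTP plus [3H]UTP, pH 7.5 Tris, 5 mM MgCl2; 60 min at 25° C. TCA-precipitated RNA counted by scintillation; IC50 from radioactivity with vs. without compound.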
Structure (SMILES),IC50 [1],IC50 [2]
"CCC(F)(F)c1ccc(CNC(=O)[C@H]2CN(C(=O)Nc3cc(C)ns3)CCN2S(=O)(=O)c2ccc(OC(F)(F)F)cc2)cc1 [Example 553, (R)-4-(4-trifluoromethoxy-benzenesulfonyl)-piperazine-1,3-dicarboxylic acid 3-[4-(1,1-difluoro-propyl)-benzylamide] 1-[(3-methyl-isothiazol-5-yl)-amide]]",< 100 nM,< 100 nM
"CCC(F)(F)c1ccc(CNC(=O)[C@H]2CN(C(=O)Nc3nccs3)CCN2S(=O)(=O)c2ccc(OC(F)(F)F)cc2)cc1 [Example 554, (R)-4-(4-trifluoromethoxy-benzenesulfonyl)-piperazine-1,3-dicarboxylic acid 3-[4-(1,1-difluoro-propyl)-benzylamide] 1-thiazol-2-ylamide]",< 100 nM,100 to 1000 nM
"CCC(F)(F)c1ccc(CNC(=O)[C@H]2CN(C(=O)Nc3ccnc(C(F)(F)F)c3)CCN2S(=O)(=O)c2ccc(OC(F)(F)F)cc2)cc1 [Example 555, (R)-4-(4-trifluoromethoxy-benzenesulfonyl)-piperazine-1,3-dicarboxylic acid 3-[4-(1,1-difluoro-propyl)-benzylamide] 1-[(2-trifluoromethyl-pyridin-4-yl)-amide]]",100 to 1000 nM,100 to 1000 nM
"CCCc1ccc(CNC(=O)[C@H]2CN(c3cnc4c(n3)NC(=O)OC4)CCN2S(=O)(=O)c2ccc(OC(F)(F)F)cc2)cc1 [Example 556, (R)-4-(2-oxo-1,4-dihydro-2H-pyrazino[2,3-d][1,3]oxazin-7-yl)-1-(4-trifluoromethoxy-benzenesulfonyl)-piperazine-2-carboxylic acid 4-propyl-benzylamide]",< 100 nM,< 100 nM
"CCCc1ccc(CNC(=O)[C@H]2CN(c3nc4c(s3)CNCC4)CCN2S(=O)(=O)c2ccc(OC(F)(F)F)cc2)cc1 [Example 557, (R)-4-(4,5,6,7-tetrahydro-thiazolo[5,4-c]pyridin-2-yl)-1-(4-trifluoromethoxy-benzenesulfonyl)-piperazine-2-carboxylic acid 4-propyl-benzylamide]",< 100 nM,< 100 nM
"CC(C)(C)c1ccc(CNC(=O)[C@H]2CN(c3cnc(CN4CCCC4)cn3)CCN2S(=O)(=O)c2ccc(OC(F)(F)F)cc2)cc1 [Example 558, (R)-5′-pyrrolidin-1-ylmethyl-4-(4-trifluoromethoxy-benzenesulfonyl)-3,4,5,6-tetrahydro-2H-[1,2′]bipyrazinyl-3-carboxylic acid 4-tert-butyl-benzylamide]",< 100 nM,100 to 1000 nM
"CCC(F)(F)c1ccc(CNC(=O)[C@H]2CN(c3cnc(C(=O)O)cn3)CCN2S(=O)(=O)c2ccc(OC(F)(F)F)cc2)cc1 [Example 559, (R)-3-[4-(1,1-difluoro-propyl)-benzylcarbamoyl]-4-(4-trifluoromethoxy-benzenesulfonyl)-3,4,5,6-tetrahydro-2H-[1,2′]bipyrazinyl-5′-carboxylic acid]",< 100 nM,< 100 nM
"CCC(F)(F)c1ccc(CNC(=O)[C@H]2CN(c3cnc(CO)cn3)CCN2S(=O)(=O)c2ccc(OC(F)(F)F)cc2)cc1 [Example 560, (R)-5′-hydroxymethyl-4-(4-trifluoromethoxy-benzenesulfonyl)-3,4,5,6-tetrahydro-2H-[1,2′]bipyrazinyl-3-carboxylic acid 4-(1,1-difluoro-propyl)-benzylamide]",< 100 nM,< 100 nM
"CCCc1ccc(CNC(=O)[C@H]2CN(c3nc4c(s3)CN(Cc3ccccc3)CC4)CCN2S(=O)(=O)c2ccc(OC(F)(F)F)cc2)cc1 [Example 561, (R)-4-(5-benzyl-4,5,6,7-tetrahydro-thiazolo[5,4-c]pyridin-2-yl)-1-(4-trifluoromethoxy-benzenesulfonyl)-piperazine-2-carboxylic acid 4-propyl-benzylamide]",< 100 nM,< 100 nM
"CCCc1ccc(CNC(=O)[C@H]2CN(c3nc(CO)c(CO)s3)CCN2S(=O)(=O)c2ccc(OC(F)(F)F)cc2)cc1 [Example 562, (R)-4-(4,5-bis-hydroxymethyl-thiazol-2-yl)-1-(4-trifluoromethoxy-benzenesulfonyl)-piperazine-2-carboxylic acid 4-propyl-benzylamide]",< 100 nM,< 100 nM
"CCCc1ccc(CNC(=O)[C@H]2CN(c3nc(C)ns3)CCN2S(=O)(=O)c2ccc(OC(F)(F)F)cc2)cc1 [Example 563, (R)-4-(3-methyl-[1,2,4]thiadiazol-5-yl)-1-(4-trifluoromethoxy-benzenesulfonyl)-piperazine-2-carboxylic acid 4-propyl-benzylamide]",< 100 nM,< 100 nM
"CCc1ccc(S(=O)(=O)N2CCN(c3cnc(C(=O)O)cn3)C[C@@H]2C(=O)NCc2ccc(C(F)(F)CC)cc2)cc1 [Example 564, (R)-3-[4-(1,1-difluoro-propyl)-benzylcarbamoyl]-4-(4-ethyl-benzenesulfonyl)-3,4,5,6-tetrahydro-2H-[1,2′]bipyrazinyl-5′-carboxylic acid]",< 100 nM,< 100 nM
"CCC(F)(F)c1ccc(CNC(=O)[C@H]2CN(C(=O)Nc3nc[nH]n3)CCN2S(=O)(=O)c2ccc(OC(F)(F)F)cc2)cc1 [Example 565, (R)-4-(4-trifluoromethoxy-benzenesulfonyl)-piperazine-1,3-dicarboxylic acid 3-[4-(1,1-difluoro-propyl)-benzylamide] 1-[(1H-[1,2,4]triazol-3-yl)-amide]]",< 100 nM,100 to 1000 nM
"CCC(F)(F)c1ccc(CNC(=O)[C@H]2CN(C(=O)Nc3nn[nH]n3)CCN2S(=O)(=O)c2ccc(OC(F)(F)F)cc2)cc1 [Example 566, (R)-4-(4-trifluoromethoxy-benzenesulfonyl)-piperazine-1,3-dicarboxylic acid 3-[4-(1,1-difluoro-propyl)-benzylamide] 1-[(2H-tetrazol-5-yl)-amide]]",< 100 nM,100 to 1000 nM
"CCC(F)(F)c1ccc(CNC(=O)[C@H]2CN(C(=O)Nc3csc(C)n3)CCN2S(=O)(=O)c2ccc(OC(F)(F)F)cc2)cc1 [Example 567, (R)-4-(4-trifluoromethoxy-benzenesulfonyl)-piperazine-1,3-dicarboxylic acid 3-[4-(1,1-difluoro-propyl)-benzylamide] 1-[(2-methyl-thiazol-4-yl)-amide]]",< 100 nM,100 to 1000 nM
"CCC(F)(F)c1ccc(CNC(=O)[C@H]2CN(C(=O)n3nc(C)nc3N)CCN2S(=O)(=O)c2ccc(OC(F)(F)F)cc2)cc1 [Example 568, (R)-4-(5-amino-3-methyl-[1,2,4]triazole-1-carbonyl)-1-(4-trifluoromethoxy-benzenesulfonyl)-piperazine-2-carboxylic acid 4-(1,1-difluoro-propyl)-benzylamide]",> 1000 nM,> 1000 nM
"CCC(F)(F)c1ccc(CNC(=O)[C@H]2CN(C(=O)Nc3ccn(C)n3)CCN2S(=O)(=O)c2ccc(OC(F)(F)F)cc2)cc1 [Example 569, (R)-4-(4-trifluoromethoxy-benzenesulfonyl)-piperazine-1,3-dicarboxylic acid 3-[4-(1,1-difluoro-propyl)-benzylamide] 1-[(1-methyl-1H-pyrazol-3-yl)-amide]]",< 100 nM,100 to 1000 nM
"CC(C)(C)c1ccc(CNC(=O)[C@H]2CN(c3ncc(CO)s3)CCN2S(=O)(=O)c2ccc(OC(F)(F)F)cc2)cc1 [Example 570, (R)-4-(5-hydroxymethyl-thiazol-2-yl)-1-(4-trifluoromethoxy-benzenesulfonyl)-piperazine-2-carboxylic acid 4-tert-butyl-benzylamide]",< 100 nM,< 100 nM
"CCCc1ccc(CNC(=O)[C@H]2CN(c3cc(Cl)ncn3)CCN2S(=O)(=O)c2ccc(OC(F)(F)F)cc2)cc1 [Example 571, (R)-4-(6-chloro-pyrimidin-4-yl)-1-(4-trifluoromethoxy-benzenesulfonyl)-piperazine-2-carboxylic acid 4-propyl-benzylamide]",< 100 nM,< 100 nM
"CCCc1ccc(CNC(=O)[C@H]2CN(c3ccncn3)CCN2S(=O)(=O)c2ccc(OC(F)(F)F)cc2)cc1 [Example 572, (R)-4-pyrimidin-4-yl-1-(4-trifluoromethoxy-benzenesulfonyl)-piperazine-2-carboxylic acid 4-propyl-benzylamide]",< 100 nM,< 100 nM
"CC(C)(C)c1ccc(CNC(=O)[C@H]2CN(c3nc4c(s3)C(=O)NC4=O)CCN2S(=O)(=O)c2ccc(OC(F)(F)F)cc2)cc1 [Example 573, (R)-4-(4,6-dioxo-5,6-dihydro-4H-pyrrolo[3,4-d]thiazol-2-yl)-1-(4-trifluoromethoxy-benzenesulfonyl)-piperazine-2-carboxylic acid 4-tert-butyl-benzylamide]",< 100 nM,< 100 nM
"CCCc1ccc(CNC(=O)[C@H]2CN(c3cnc4cncnc4n3)CCN2S(=O)(=O)c2ccc(OC(F)(F)F)cc2)cc1 [Example 574, (R)-4-pteridin-7-yl-1-(4-trifluoromethoxy-benzenesulfonyl)-piperazine-2-carboxylic acid 4-propyl-benzylamide]",< 100 nM,< 100 nM
